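In this assay, cells in 96-well plates receive the compound at five concentrations for 48 hours. Endpoints are linearly interpolated between the surrounding concentrations. The concentration for 50% growth inhibition is given as GI50.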 Activity calls are given as the source filed them. Cut-off read from the data, not from the text of the source: active = GI50 up to about 1.1 µM and inactive = higher.
Legend:
Experiment in all cases: NCI anticancer screen, dose series, 48 h
HT-29 = system: HT-29
IGROV-1 = system: IGROV-1
SK-MEL-28 = system: SK-MEL-28
SK-MEL-5 = system: SK-MEL-5
SK-MEL-2 = system: SK-MEL-2
MOLT-4 = system: MOLT-4
RXF 393 = system: RXF 393
786-0 = system: 786-0
UACC-257 = system: UACC-257
OVCAR-5 = system: OVCAR-5
NCI-H460 = system: NCI-H460
EKVX = system: EKVX
LXFL 529 = system: LXFL 529
HCT-116 = system: HCT-116
SF-295 = system: SF-295
A498 = system: A498
HCC 2998 = system: HCC 2998

Measured: GI50

CCOC(=O)NN(C(=O)OCC)C(C(=O)c1ccc(Cl)cc1)=C1NCCN1
inactive: HT-29 > 100 µM | IGROV-1 > 100 µM | SK-MEL-28 > 100 µM | SK-MEL-5 > 100 µM | SK-MEL-2 > 100 µM | MOLT-4 > 100 µM | RXF 393 > 100 µM | 786-0 > 100 µM | UACC-257 > 100 µM | OVCAR-5 > 100 µM | NCI-H460 > 100 µM | EKVX > 100 µM | LXFL 529 > 100 µM | HCT-116 > 100 µM | SF-295 > 100 µM | A498 > 100 µM | HCC 2998 > 100 µM

CCOc1ccc(NC2=NC(=O)C(CC(=O)Nc3ccccc3[N+](=O)[O-])S2)cc1 (stereo not given)
inactive: HT-29 > 100 µM | IGROV-1 > 100 µM | SK-MEL-28 > 100 µM | SK-MEL-5 > 100 µM | SK-MEL-2 > 100 µM | MOLT-4 > 100 µM | RXF 393 > 100 µM | 786-0 > 100 µM | UACC-257 > 100 µM | OVCAR-5 > 100 µM | NCI-H460 > 100 µM | EKVX > 100 µM | LXFL 529 > 100 µM | HCT-116 > 100 µM | SF-295 > 100 µM | A498 > 100 µM | HCC 2998 > 100 µM

CCNC1C2(CCCCC2)NC(=O)C12CCCCC2 (stereo not given)
inactive: HT-29 > 100 µM | IGROV-1 > 100 µM | SK-MEL-28 > 100 µM | SK-MEL-5 > 100 µM | SK-MEL-2 > 100 µM | MOLT-4 > 100 µM | RXF 393 > 100 µM | 786-0 > 100 µM | UACC-257 > 100 µM | OVCAR-5 > 100 µM | NCI-H460 > 100 µM | EKVX > 100 µM | LXFL 529 > 100 µM | HCT-116 > 100 µM | SF-295 > 100 µM | A498 > 100 µM | HCC 2998 > 100 µM

CO[C@@]12CC(=O)/C(=C(O)\C=C\c3ccccc3)C(=O)[C@]1(OC)Cc1ccccc1O2
inactive: HT-29 37.5 µM | IGROV-1 54 µM | SK-MEL-28 22.4 µM | SK-MEL-5 36.5 µM | SK-MEL-2 36.8 µM | MOLT-4 29.7 µM | RXF 393 18.8 µM | 786-0 24.7 µM | UACC-257 30.1 µM | OVCAR-5 41.7 µM | NCI-H460 28.9 µM | EKVX 38.5 µM | LXFL 529 33.7 µM | HCT-116 30.1 µM | SF-295 29.8 µM | A498 33.3 µM | HCC 2998 22.3 µM

O=C(O)C1C2CCC(O2)C1C(=O)N1CCCCC1 (stereo not given)
inactive: HT-29 4.07 µM | IGROV-1 30.5 µM | SK-MEL-28 5.83 µM | SK-MEL-5 13.8 µM | SK-MEL-2 8.17 µM | MOLT-4 5.06 µM | RXF 393 2.2 µM | 786-0 4.16 µM | UACC-257 17.2 µM | OVCAR-5 26.5 µM | NCI-H460 12.8 µM | EKVX 4.02 µM | LXFL 529 5.02 µM | HCT-116 10.2 µM | SF-295 10.4 µM | A498 1.28 µM | HCC 2998 4.11 µM
